From the NIST ThermoML archive (doi:10.1021/je801006q)
± gives the expanded uncertainty stated by the source.

Columns and labels:
[1] = xn = mol fraction of the nth substance listed; conditions: 101 kPa, Liquid
[2] = excess molar enthalpy (molar enthalpy of mixing); xn = mol fraction of the nth substance listed; conditions: 298.15 K, 101 kPa, Liquid, Calvet calorimetry

Which results are given for `O=C1CCCN1` [2-pyrrolidinone] + CCC(C)O?
mass density ([1]; 293.15 K, x1 = 0.0995): 831.58 ± 0.44 kg/m3; viscosity ([1]; 293.15 K, x1 = 0.0995): 3.409 ± 0.3 mPa·s; mass density ([1]; 293.15 K, x1 = 0.1675): 849.93 ± 0.42 kg/m3; viscosity ([1]; 293.15 K, x1 = 0.1675): 3.108 ± 0.28 mPa·s; mass density ([1]; 293.15 K, x1 = 0.2444): 871.14 ± 0.4 kg/m3; viscosity ([1]; 293.15 K, x1 = 0.2444): 3.034 ± 0.27 mPa·s; mass density ([1]; 293.15 K, x1 = 0.2996): 886.73 ± 0.38 kg/m3; viscosity ([1]; 293.15 K, x1 = 0.2996): 2.84 ± 0.26 mPa·s; mass density ([1]; 293.15 K, x1 = 0.3945): 914.18 ± 0.36 kg/m3; viscosity ([1]; 293.15 K, x1 = 0.3945): 2.982 ± 0.27 mPa·s; mass density ([1]; 293.15 K, x1 = 0.4531): 931.54 ± 0.34 kg/m3; viscosity ([1]; 293.15 K, x1 = 0.4531): 3.084 ± 0.28 mPa·s; mass density ([1]; 293.15 K, x1 = 0.4967): 944.64 ± 0.33 kg/m3; viscosity ([1]; 293.15 K, x1 = 0.4967): 3.237 ± 0.29 mPa·s; mass density ([1]; 293.15 K, x1 = 0.5546): 962.32 ± 0.32 kg/m3; viscosity ([1]; 293.15 K, x1 = 0.5546): 3.668 ± 0.32 mPa·s; mass density ([1]; 293.15 K, x1 = 0.6402): 989.06 ± 0.3 kg/m3; viscosity ([1]; 293.15 K, x1 = 0.6402): 4.673 ± 0.41 mPa·s; mass density ([1]; 293.15 K, x1 = 0.7126): 1012.23 ± 0.32 kg/m3; viscosity ([1]; 293.15 K, x1 = 0.7126): 5.995 ± 0.5 mPa·s; mass density ([1]; 293.15 K, x1 = 0.7895): 1037.38 ± 0.38 kg/m3; viscosity ([1]; 293.15 K, x1 = 0.7895): 7.928 ± 0.62 mPa·s; mass density ([1]; 293.15 K, x1 = 0.8438): 1055.57 ± 0.42 kg/m3; viscosity ([1]; 293.15 K, x1 = 0.8438): 9.691 ± 0.73 mPa·s; mass density ([1]; 293.15 K, x1 = 0.9096): 1078.09 ± 0.48 kg/m3; viscosity ([1]; 293.15 K, x1 = 0.9096): 11.74 ± 0.85 mPa·s; mass density ([1]; 293.15 K, x1 = 0.9767): 1101.54 ± 0.54 kg/m3; viscosity ([1]; 293.15 K, x1 = 0.9767): 14.73 ± 1 mPa·s; mass density ([1]; 298.15 K, x1 = 0.0995): 828.13 ± 0.45 kg/m3; viscosity ([1]; 298.15 K, x1 = 0.0995): 2.829 ± 0.25 mPa·s; mass density ([1]; 298.15 K, x1 = 0.1675): 846.53 ± 0.43 kg/m3; viscosity ([1]; 298.15 K, x1 = 0.1675): 2.409 ± 0.22 mPa·s; mass density ([1]; 298.15 K, x1 = 0.2444): 867.8 ± 0.4 kg/m3; viscosity ([1]; 298.15 K, x1 = 0.2444): 2.443 ± 0.22 mPa·s; mass density ([1]; 298.15 K, x1 = 0.2996): 883.42 ± 0.39 kg/m3; viscosity ([1]; 298.15 K, x1 = 0.2996): 2.461 ± 0.22 mPa·s; mass density ([1]; 298.15 K, x1 = 0.3945): 910.92 ± 0.36 kg/m3; viscosity ([1]; 298.15 K, x1 = 0.3945): 2.561 ± 0.23 mPa·s; mass density ([1]; 298.15 K, x1 = 0.4531): 928.3 ± 0.35 kg/m3; viscosity ([1]; 298.15 K, x1 = 0.4531): 2.698 ± 0.24 mPa·s; mass density ([1]; 298.15 K, x1 = 0.4967): 941.43 ± 0.34 kg/m3; viscosity ([1]; 298.15 K, x1 = 0.4967): 2.856 ± 0.26 mPa·s; mass density ([1]; 298.15 K, x1 = 0.5546): 959.15 ± 0.32 kg/m3; viscosity ([1]; 298.15 K, x1 = 0.5546): 3.241 ± 0.29 mPa·s; mass density ([1]; 298.15 K, x1 = 0.6402): 985.96 ± 0.3 kg/m3; viscosity ([1]; 298.15 K, x1 = 0.6402): 4.125 ± 0.36 mPa·s; mass density ([1]; 298.15 K, x1 = 0.7126): 1009.19 ± 0.31 kg/m3; viscosity ([1]; 298.15 K, x1 = 0.7126): 5.238 ± 0.45 mPa·s; mass density ([1]; 298.15 K, x1 = 0.7895): 1034.41 ± 0.37 kg/m3; viscosity ([1]; 298.15 K, x1 = 0.7895): 6.821 ± 0.55 mPa·s; mass density ([1]; 298.15 K, x1 = 0.8438): 1052.66 ± 0.42 kg/m3; viscosity ([1]; 298.15 K, x1 = 0.8438): 8.277 ± 0.64 mPa·s; mass density ([1]; 298.15 K, x1 = 0.9096): 1075.19 ± 0.47 kg/m3; viscosity ([1]; 298.15 K, x1 = 0.9096): 10.1 ± 0.75 mPa·s; mass density ([1]; 298.15 K, x1 = 0.9767): 1098.73 ± 0.53 kg/m3; viscosity ([1]; 298.15 K, x1 = 0.9767): 12.47 ± 0.9 mPa·s; mass density ([1]; 303.15 K, x1 = 0.0995): 824.55 ± 0.45 kg/m3; viscosity ([1]; 303.15 K, x1 = 0.0995): 2.3 ± 0.21 mPa·s; mass density ([1]; 303.15 K, x1 = 0.1675): 842.94 ± 0.43 kg/m3; viscosity ([1]; 303.15 K, x1 = 0.1675): 1.896 ± 0.17 mPa·s; mass density ([1]; 303.15 K, x1 = 0.2444): 864.23 ± 0.41 kg/m3; viscosity ([1]; 303.15 K, x1 = 0.2444): 1.707 ± 0.16 mPa·s; mass density ([1]; 303.15 K, x1 = 0.2996): 879.83 ± 0.39 kg/m3; viscosity ([1]; 303.15 K, x1 = 0.2996): 1.724 ± 0.16 mPa·s; mass density ([1]; 303.15 K, x1 = 0.3945): 907.3 ± 0.37 kg/m3; viscosity ([1]; 303.15 K, x1 = 0.3945): 1.834 ± 0.17 mPa·s; mass density ([1]; 303.15 K, x1 = 0.4531): 924.68 ± 0.35 kg/m3; viscosity ([1]; 303.15 K, x1 = 0.4531): 2.068 ± 0.19 mPa·s; mass density ([1]; 303.15 K, x1 = 0.4967): 937.81 ± 0.34 kg/m3; viscosity ([1]; 303.15 K, x1 = 0.4967): 2.348 ± 0.21 mPa·s; mass density ([1]; 303.15 K, x1 = 0.5546): 955.53 ± 0.33 kg/m3; viscosity ([1]; 303.15 K, x1 = 0.5546): 2.702 ± 0.24 mPa·s; mass density ([1]; 303.15 K, x1 = 0.6402): 982.36 ± 0.31 kg/m3; viscosity ([1]; 303.15 K, x1 = 0.6402): 3.405 ± 0.3 mPa·s; mass density ([1]; 303.15 K, x1 = 0.7126): 1005.62 ± 0.31 kg/m3; viscosity ([1]; 303.15 K, x1 = 0.7126): 4.304 ± 0.38 mPa·s; mass density ([1]; 303.15 K, x1 = 0.7895): 1030.84 ± 0.37 kg/m3; viscosity ([1]; 303.15 K, x1 = 0.7895): 5.519 ± 0.47 mPa·s; mass density ([1]; 303.15 K, x1 = 0.8438): 1049.12 ± 0.41 kg/m3; viscosity ([1]; 303.15 K, x1 = 0.8438): 6.842 ± 0.55 mPa·s; mass density ([1]; 303.15 K, x1 = 0.9096): 1071.64 ± 0.46 kg/m3; viscosity ([1]; 303.15 K, x1 = 0.9096): 8.162 ± 0.63 mPa·s; mass density ([1]; 303.15 K, x1 = 0.9767): 1095.14 ± 0.52 kg/m3; viscosity ([1]; 303.15 K, x1 = 0.9767): 10.15 ± 0.76 mPa·s; excess molar enthalpy ([2]; x1 = 0.0555): 0.0404 ± 0.000932 kcal/mol; excess molar enthalpy ([2]; x1 = 0.1212): 0.0663 ± 0.00148 kcal/mol; excess molar enthalpy ([2]; x1 = 0.1842): 0.0823 ± 0.00182 kcal/mol; excess molar enthalpy ([2]; x1 = 0.2443): 0.0929 ± 0.00203 kcal/mol; excess molar enthalpy ([2]; x1 = 0.3301): 0.0988 ± 0.00215 kcal/mol; excess molar enthalpy ([2]; x1 = 0.3903): 0.0996 ± 0.00217 kcal/mol; excess molar enthalpy ([2]; x1 = 0.4444): 0.0966 ± 0.0021 kcal/mol; excess molar enthalpy ([2]; x1 = 0.4998): 0.092 ± 0.00201 kcal/mol; excess molar enthalpy ([2]; x1 = 0.5887): 0.0806 ± 0.00177 kcal/mol; excess molar enthalpy ([2]; x1 = 0.6799): 0.0665 ± 0.00148 kcal/mol; excess molar enthalpy ([2]; x1 = 0.7389): 0.0565 ± 0.00127 kcal/mol; excess molar enthalpy ([2]; x1 = 0.8478): 0.037 ± 0.00086 kcal/mol; excess molar enthalpy ([2]; x1 = 0.9309): 0.0215 ± 0.00055 kcal/mol
